From publication PMC7336998, “Discovery of secondary sulphonamides as IDO1 inhibitors with potent antitumour effects in vivo” (Journal of Enzyme Inhibition and Medicinal Chemistry, 2020)
Where two headings read alike, the source gives them in different places. One block for each compound: values may come before it.

Legend:
CT26 colon carcinoma [1] = assay: CT26 colon carcinoma xenograft in immunocompetent BALB/c mice (tumour growth, H&E, IHC, TUNEL, spleen FACS); assay type: in vivo; settings: CT26 tumour tissue, BALB/c mice, 25 mg/kg i.p
Experimental: BALB/c mice (6–8 weeks old, 18–22 g) were supplied by Model Animal Research Centre of Nanjing University (Nanjing, China). Mice were maintained under standard specific-pathogen-free (SPF) conditions (21 ± 2 °C and 12-h light: dark cycle). Animal welfare and experimental procedures were carried out strictly in accordance with the Guide for the Care and Use of Laboratory Animals (The Ministry of Science and Technology of China, 2006) and the related ethical regulations of our university. All efforts were made to minimise animals’ suffering and to reduce the number of animals used. Mouse colon cancer cells (CT26) and melanoma cells (B16F1) were cultured and collected by centrifugation (1000 rpm, 5 min) and washed twice with ice-cold PBS. Then cells were diluted to 1 × 10^7/ml and 1 × 10^6 CT26/B16F1 cells (in 0.1 ml PBS) were injected subcutaneously into the right flanks of mice. All mice formed tumours three days after injection. Then mice were randomly distributed into five groups (n = 10/8) according to tumour volumes. 5d ([…], 12.5 mg/kg) were administered (i.g) to each group respectively every day. 5-FU (25 mg/kg) and Cis-platinum (1 mg/kg) were administered (i.p) every three days. Tumour length and tumour width were measured with a Vernier calliper every three days. Tumour volumes were measured and calculated using the equation volume = a × b^2/2, where “a” is the maximal […] and “b” is maximal orthogonal width. After the administration were completed, mice were weighed, euthanized, and tumours were removed and the weight were taken.
(§1) For immunohistochemistry staining, the sections were deparaffinized, rehydrated, and washed in 1% PBS-Tween 20, and then treated with 2% hydrogen peroxide, blocked with 3% goat serum (Life Technology, 16210–064) and incubated for 2 h at room temperature with specific primary antibodies. Then the slides were incubated with streptavidin-HRP (Shanghai Gene Company, GK500705) for 40 min, then stained with DAB (Shanghai Gene Company, GK500705) substrate and counter-stained with haematoxylin. Images were acquired by microscopy (Olympus IX51).
Given that it was the most prominent inhibitor in vitro, we chose compound 5d for further pharmacodynamic evaluation in vivo. Bowel cancer is the third leading cause of cancer in the world, thus we first evaluated the efficacy of compound 5d on the growth of murine CT26 colon carcinoma xenograft model in immunocompetent BALB/c mice. Fluorouracil (5-FU) is one of the most commonly used drugs to different cancers including bowel cancer, and was used as the positive control. The CT26 tumour-bearing mice were treated with 5d (3.125, 6.25, 12.5 mg/kg, i.g, every day) or 5-FU (25 mg/kg, i.p, […]). Tumour volumes were measured every two days for 14 days.
Figure 7. Compound 5d suppressed colon cancer growth in immunocompetent mice. 1 × 10^6 CT26 cells were transplanted subcutaneously into the armpit of the BALB/c mice. Three days after transplantation, mice were randomly allocated to vehicle control or treatment groups (n = 10). Drugs were administered on days 1–14. Tumour volume (A) and mice body weight (B) were recorded. After sacrifice, solid tumours were separated and weighed (C, D). Data represent mean ± SEM, n = 10, *p < 0.05, **p < 0.01 vs vehicle.
In order to further observe morphological changes in tumour tissues after administration of compound 5d, the tumour tissue sections obtained from the BALB/c mice bearing CT26 colorectal tumours were stained with haematoxylin-eosin (H&E) to highlight different tissue structures, such as the nucleus and cytoplasm.
Then, to understand the mechanism of tumour cell death, we detected the level of proliferating cell nuclear antigen (PCNA) protein and tumour cell apoptosis by immunohistochemistry (IHC) and terminal deoxynucleotidyl transferase dUTP nick end labelling (TUNEL) experiments, respectively. […]

CT26 colon carcinoma [2] = assay: CT26 colon carcinoma xenograft in immunodeficient BALB/c nude mice; assay type: in vivo, mouse; settings: BALB/c nude mice, 25 mg/kg i.p, vs vehicle
Experimental: Eight-week-old male BALB/c nude mice, weighing 18–22 g, were supplied by Model Animal Research Centre of Nanjing University (Nanjing, China). 1 × 10^7/ml and 1 × 10^6 CT26 cells (in 0.1 ml PBS) were injected subcutaneously into the right flanks of mice. After CT26 xenograft BALB/c nude mouse model was established, all mice were randomly divided into three groups (n = 8). 5d (12.5 mg/kg) were administered (i.g) every day and 5-FU (25 mg/kg) awere administered (i.p) every three days. The following experimental procedures were similar to the described above.
as §1
Then, in order to clarify whether the in vivo antitumour efficacy of compound 5d was related to the mouse immune system, we repeated the above experiment in immunodeficient nude mice. Briefly, BALB/c nude mice bearing established CT26 colon carcinoma xenograft were treated with compound 5d and 5-FU for 10 days.
Figure 8. […] 1 × 10^6 CT26 cells were transplanted subcutaneously into the armpit of immunodeficient BALB/c nude mice. Three days after transplantation, mice were randomly allocated to vehicle control or treatment groups (n = 8). Drugs were administered on days 1–9. (A) Tumour volume and mouse body weight (B) were recorded. After sacrifice, solid tumours were separated and weighed (C, D). Data represent mean ± SEM, n = 8, *p < 0.05, **p < 0.01 vs vehicle.
To verify the above conclusions, we further performed H&E and IHC staining on the nude mouse CT26 tumour tissues. […] These findings further supported the above conclusions.

IDO1 [3] = target: T1, IDO1 (Homo sapiens, UniProt P14902); assay: HeLa cell-based IDO1/kynurenine assay; settings: for IC50: HeLa cells, IFN-γ induced IDO1, kynurenine readout; for inhibition at 30 µM: percentage inhibition at 30 μM, IFN-γ-treated HeLa cells, kynurenine in media; for potency increase as compared with the hit BS-1: ratio of HeLa IC50 values
T1 construct: a human cervical cancer cell line HeLa that endogenously expresses IDO1 upon IFN-γ treatment; endogenous in cells; host or cells: HeLa cells treated with human IFN-γ
Experimental: (§2) The main bioassays performed in the study, including HeLa cell-based IDO1/kynurenine assay, Western blot analysis, T cell proliferation and Treg cell differentiation experiments, were carried out as described previously.
It is well known that IDO1 is broadly expressed in human cancers and is induced by pro-inflammatory cytokines, such as interferon gamma (IFN-γ) and tumour necrosis factor alpha (TNF-α)[41]. Here we utilised a human cervical cancer cell line HeLa that endogenously expresses IDO1 upon IFN-γ treatment to evaluate the IDO1 inhibitory activity of the synthesised compounds by measuring kynurenine secreted into the media. […] Thus, we also employed this cellular assay to detect false positive IDO1 inhibitors and cytotoxic compounds by measuring HeLa cell viability. Clinical candidate navoximod was used as an assay control.

HeLa cells = assay: HeLa cell viability by MTT at the end of the IDO1/kynurenine assay; assay type: cell-based, human; settings: under the experimental conditions of the IDO1 assay
Description: It is well known that IDO1 is broadly expressed in human cancers and is induced by pro-inflammatory cytokines, such as interferon gamma (IFN-γ) and tumour necrosis factor alpha (TNF-α)[41]. Here we utilised a human cervical cancer cell line HeLa that endogenously expresses IDO1 upon IFN-γ treatment to evaluate the IDO1 inhibitory activity of the synthesised compounds by measuring kynurenine secreted into the media. This cell-based assay, as a rapid and simple method for determination IDO1/kynurenine, is closely related to the potency of the enzyme assay and has been widely used to identify various IDO1 inhibitors[19]^,[23]^,[29]^,[42]. In addition, cytotoxic compounds can reduce cell viability, which will decrease the IDO1 levels and then lower the conversion of tryptophan to kynurenine. Thus, we also employed this cellular assay to detect false positive IDO1 inhibitors and cytotoxic compounds by measuring HeLa cell viability. Clinical candidate navoximod was used as an assay control.
Furthermore, the viability of HeLa cells was evaluated by the MTT method at the end of the assay.

IDO1 protein expression = assay: Western blot of IDO1 protein expression in IFN-γ-treated HeLa cells; assay type: cell-based, human; settings: HeLa cells, IFN-γ 100 ng/mL 24 h, then compounds at their IC50 concentrations for 24 h
Experimental: as §2
To exclude the possibility that these secondary sulphonamides inhibit IDO1 activity by down-regulating IDO1 expression, we utilised Western blot to measure the expression of IDO1 protein in HeLa cells treated with different compounds.
Figure 3. […] (B) The greyscale scanning statistical results of A. (C) HeLa cells were incubated with compound 5d (3, 10, 30 μM) for 24 h. (D) The greyscale scanning statistical results of C. (E) HeLa cells were incubated with compound 5d (3, 10, 30 μM) for 48 h. (F) The greyscale scanning statistical results of E. Data are presented as means ± SEM (n = 3).

[4] = system: naïve CD4+ T cells co-cultured with B16F1 melanoma cells; assay: T cell proliferation in B16F1-T cell co-culture (MTT); assay type: cell-based, mouse
Experimental: as §2
T lymphocytes are exceedingly sensitive to low tryptophan levels. Overactivation of the kynurenine pathway by high IDO1 expression leads to local tryptophan depletion, which can suppress T cell proliferation by activating the GCN2 kinase pathway and eventually result in T cell anergy. Here, to determine whether secondary sulphonamides could rescue IDO1-mediated blockade of T cell proliferation, we used a co-culture of IDO1-expressing B16F1 melanoma cells with naïve CD4^+ T cells to mimic the tumour microenvironment. Given that melanoma is a highly immunogenic tumour and IDO1 constitutively expresses in melanoma cells, B16F1 murine melanoma cell lines that express IDO1 were then used to co-culture with T cells. Naïve CD4^+ T cells were isolated from spleens of C57BL/6 mice.
Figure 4. Compounds 5d and 8 g could promote the proliferation of T cells. Based on the B16F1-T cell co-culture system, use MTT assay to test T cells proliferation. The Navoximod and compounds were added to the system at the concentration of 1.5 and 18 μM. Data represent mean ± SEM (n = 3).

[5] = system: naïve CD4+ T cells co-cultured with B16F1 cells; assay: FoxP3+ Treg cell differentiation in B16F1-T cell co-culture (flow cytometry); assay type: cell-based, mouse; settings: for FoxP3+ Treg cell differentiation (in words): Con A, 48 h
Experimental: as §2
Besides causing local tryptophan depletion, high IDO1 expression can also accumulate metabolites of kynurenine pathway. The elevated metabolites can not only induce effector T cell death directly through their cytotoxicity, but also promote the differentiation of naïve CD4^+ T cells into CD4^+ FoxP3^+ Treg cells by activating the AHR pathway. As a highly immunosuppressive subset of CD4^+ T cells, FoxP3^+ Treg cells are critical to the maintenance of immune homeostasis and are involved in tumour immune escape, thereby contributing to tumour development and progression. Therefore, we also utilised co-culture of B16F1 cells with naïve CD4^+ T cells to test whether the synthesised compounds could suppress IDO1 mediated Treg cell differentiation.
Figure 5. Compounds 5d and 8 g inhibited Treg cell differentiation in the cell co-culture system. (A) After co-cultured with B16F1 cells, T cells were collected. Surface staining was performed with CD4^+ FTTC and CD25^+ PE for 30 min at 4 °C. The cells were fixed and permeabilized with fixation buffer and permeabilization wash buffer. The intracellular staining was performed with FoxP3^+ APC for 20 min. The cells were then analysed by flow cytometry analysis. (B) Statistical analysis of result A. Data are represented as ± SEM (n = 3). *p < 0.05, **p < 0.01 vs T + B16F1. TEXT PRINTED IN THE PICTURE: (A) Navoximod: 8.1% (T + B16F1; 1.5 μM) | (A) 8g: 7.8% (T + B16F1; 18 μM) | (A) 5d: 2.1% (T + B16F1; 18 μM)

IDO1 [6] = target: T1, IDO1; parameters: method as in earlier work; settings: HeLa cell assay; earlier series of N-acetyl secondary sulphonamides; cited from earlier work

T1 sequence (P14902 whole entry): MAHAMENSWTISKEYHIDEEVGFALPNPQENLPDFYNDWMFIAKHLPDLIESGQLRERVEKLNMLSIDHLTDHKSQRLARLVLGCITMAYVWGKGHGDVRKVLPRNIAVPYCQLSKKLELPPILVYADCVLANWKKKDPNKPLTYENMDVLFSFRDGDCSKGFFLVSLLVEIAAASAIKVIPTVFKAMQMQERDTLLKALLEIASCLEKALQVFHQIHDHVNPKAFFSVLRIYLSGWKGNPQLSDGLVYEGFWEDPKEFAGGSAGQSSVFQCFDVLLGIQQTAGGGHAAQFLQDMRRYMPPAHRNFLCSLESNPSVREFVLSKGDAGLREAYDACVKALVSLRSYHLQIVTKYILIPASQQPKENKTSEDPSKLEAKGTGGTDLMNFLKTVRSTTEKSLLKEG

SMILES: O=c1[nH]cc(F)c(=O)[nH]1 [5-FU, Fluorouracil, reference compound]
expression of PCNA protein (IHC) (CT26 colon carcinoma [1]): significantly reduced
number of tumour cells (H&E staining) (CT26 colon carcinoma [1]): significantly reduced
tumour cell apoptosis (TUNEL) (CT26 colon carcinoma [1]): apoptosis increased
tumour growth (CT26 colon carcinoma [2]): significantly suppressed tumour growth

SMILES: O[C@H](C[C@H]1c2c(F)cccc2-c2cncn21)[C@H]1CC[C@H](O)CC1 [Navoximod, (1R,4r)-4-((R)-2-((S)-6-fluoro-5H-imidazo[5,1-a]isoindol-5-yl)-1-hydroxyethyl)cyclohexan-1-ol, reference compound]
T cell proliferation ([4]; 1.5 μM): significant augmentation on T cell activity
FoxP3+ Treg cells (flow cytometry) ([5]; 1.5 μM): 8.1%
FoxP3+ Treg cell differentiation (in words) ([5]; 1.5 μM): significantly reduce FoxP3^+ Treg cell differentiation

Second part, led by results:

IC50 (IDO1 [3]): 6.64 µM
inhibition at 30 µM (IDO1 [3]): 89.1%
potency increase as compared with the hit BS-1 (IDO1 [3]): 7.4 fold
melting point: 156 to 158 °C
SMILES: C=CC(=O)Nc1ccc(S(=O)(=O)NCc2cccc(Br)c2)cc1 [5l, N-(4-(N-(3-Bromobenzyl)sulfamoyl)phenyl)acrylamide]
HeLa cell viability (HeLa cells): without affecting the cell viability
expression of IDO1 protein (IDO1 protein expression): did not influence IDO1 expression

IC50 (IDO1 [3]): 3.76 µM
inhibition at 30 µM (IDO1 [3]): 93.2%
potency increase as compared with the hit BS-1 (IDO1 [3]): 13.1 fold
SMILES: C=CC(=O)Nc1ccc(S(=O)(=O)Nc2ccc(F)c(Cl)c2)cc1 [8g, N-(4-(N-(3-Chloro-4-fluorophenyl)sulfamoyl)phenyl)acrylamide]
HeLa cell viability (HeLa cells): without affecting the cell viability
expression of IDO1 protein (IDO1 protein expression): did not influence IDO1 expression
T cell proliferation ([4]; 18 μM): significant augmentation on T cell activity
FoxP3+ Treg cells (flow cytometry) ([5]; 18 μM): 7.8%
FoxP3+ Treg cell differentiation (in words) ([5]; 18 μM): significantly reduce FoxP3^+ Treg cell differentiation

potency increase as compared with the hit BS-1 (IDO1 [3]): 8.4 fold
SMILES: COc1ccc(CNS(=O)(=O)c2ccc(NC(C)=O)cc2)cc1 [N-(4-(N-(4-methoxybenzyl)sulfamoyl)phenyl)acetamide, reference compound]
IC50 (IDO1 [6]): 5.88 µM
